Results from patent US20240150377A1, “MODULATORS OF CYSTIC FIBROSIS TRANSMEMBRANE CONDUCTANCE REGULATOR” (VERTEX PHARMACEUTICALS INCORPORATED, priority 2020, published 2024).
pEC50: −log10 of the molar value. Read-outs that look alike come from different tables or passages of the source. Values belong to the molecule of their own block, whether it stands above or below them.

Biological target: T1, CFTR (Homo sapiens, UniProt P13569, DEL508-508)
T1 construct: endogenous in cells; host or cells: primary human bronchial epithelial cells from CF subjects (F508del/MF-HBE), differentiated at air-liquid interface
T1 sequence (P13569 with tags, fused parts or gaps DEL508-508): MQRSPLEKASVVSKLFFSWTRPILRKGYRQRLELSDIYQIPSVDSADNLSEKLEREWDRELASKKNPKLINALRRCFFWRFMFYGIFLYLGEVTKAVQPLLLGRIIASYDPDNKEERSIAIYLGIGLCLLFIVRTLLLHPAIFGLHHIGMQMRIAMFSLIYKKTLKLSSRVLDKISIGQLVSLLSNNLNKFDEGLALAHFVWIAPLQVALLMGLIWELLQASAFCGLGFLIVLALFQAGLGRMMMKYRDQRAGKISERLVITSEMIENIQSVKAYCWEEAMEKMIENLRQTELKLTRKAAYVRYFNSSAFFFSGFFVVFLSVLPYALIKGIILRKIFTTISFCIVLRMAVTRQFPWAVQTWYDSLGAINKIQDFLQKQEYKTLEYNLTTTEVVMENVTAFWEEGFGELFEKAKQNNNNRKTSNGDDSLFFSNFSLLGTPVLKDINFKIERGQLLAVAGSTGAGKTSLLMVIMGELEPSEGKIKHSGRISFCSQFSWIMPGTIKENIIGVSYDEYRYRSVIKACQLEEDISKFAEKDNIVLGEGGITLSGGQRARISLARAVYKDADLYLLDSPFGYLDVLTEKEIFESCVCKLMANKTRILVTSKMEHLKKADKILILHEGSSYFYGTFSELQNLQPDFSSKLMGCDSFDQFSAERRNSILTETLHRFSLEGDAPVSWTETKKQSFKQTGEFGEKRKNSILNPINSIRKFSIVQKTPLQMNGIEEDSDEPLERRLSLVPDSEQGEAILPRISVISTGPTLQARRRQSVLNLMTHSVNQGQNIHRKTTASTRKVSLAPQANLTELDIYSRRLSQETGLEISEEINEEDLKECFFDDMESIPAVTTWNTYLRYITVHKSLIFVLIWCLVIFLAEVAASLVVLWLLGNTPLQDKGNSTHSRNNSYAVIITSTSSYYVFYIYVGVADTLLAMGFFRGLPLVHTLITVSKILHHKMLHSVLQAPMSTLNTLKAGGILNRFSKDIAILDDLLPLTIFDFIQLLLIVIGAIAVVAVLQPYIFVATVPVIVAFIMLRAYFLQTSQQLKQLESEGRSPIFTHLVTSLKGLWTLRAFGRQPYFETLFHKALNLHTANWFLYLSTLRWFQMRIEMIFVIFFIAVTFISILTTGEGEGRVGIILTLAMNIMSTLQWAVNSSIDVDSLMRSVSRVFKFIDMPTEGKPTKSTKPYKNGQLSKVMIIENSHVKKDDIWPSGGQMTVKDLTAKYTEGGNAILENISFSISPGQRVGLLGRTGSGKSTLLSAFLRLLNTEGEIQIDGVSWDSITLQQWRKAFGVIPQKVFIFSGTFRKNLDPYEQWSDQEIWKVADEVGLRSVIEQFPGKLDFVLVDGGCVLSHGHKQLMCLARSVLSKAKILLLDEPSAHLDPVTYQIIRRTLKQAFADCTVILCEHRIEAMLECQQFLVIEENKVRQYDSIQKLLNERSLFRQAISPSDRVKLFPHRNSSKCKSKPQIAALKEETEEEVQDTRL
Assay: HBE assay: Ussing chamber assay of CFTR-mediated short-circuit currents
Assay type: cell-based
Settings: for pEC50: read-out: HBE EC50
How it was run: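 CFTR-mediated Isc (μA/cm²) equals the peak response to apical 20 μM forskolin minus the residual after a 20 μM each BPO/GlyH-101/CFTR inhibitor 172 cocktail, recorded in Ussing chambers at Vhold 0 mV, 37 °C, pH 7.4, with 30 μM apical amiloride. Cells were F508del/MF HBE cultures preincubated 18-24 h with corrector (concentration range or 10 μM) plus 1 μM ivacaftor in 20% human serum.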

[1] = Table 11, read-out: HBE Max Activity (%)
[2] = Table 13, at 10 μM, read-out: HBE Activity at 10 μM (%)
[3] = HBE assay, 10 μM, read-out: HBE Activity at 10 μM (%)
[4] = Table 10, read-out: HBE Max activity (%)
[5] = Table 13, read-out: HBE Max Activity (%)
[6] = Table 10, at 10 μM, read-out: HBE activity at 10 (μM) (%)
[7] = HBE assay, read-out: HBE Max activity (%)
[8] = Table 12, read-out: HBE Max Activity (%)

pEC50 (Table 11): > 6.00
Emax [1]: > 60%
Structure (SMILES): COC1CCC(CN2C(=O)c3cccc(c3)S(=O)(=O)Nc3nc(cc(-c4c(C)cccc4C)n3)OC[C@H]2CC(C)(C)C)CC1 (stereo partly drawn) [Compound 903]

pEC50 (Table 11): > 6.00
Emax [1]: > 60%
Structure (SMILES): CCOc1cnc(CN2C(=O)c3cccc(c3)S(=O)(=O)Nc3nc(cc(-c4c(C)cccc4C)n3)OC[C@H]2CC(C)(C)C)nc1 [Compound 720]

activation at 10 µM [2]: > 600%
Structure (SMILES): Cc1cccc(C)c1-c1cc2nc(n1)NS(=O)(=O)c1cccc(c1)C(=O)N(CC(=O)N(C)C1CCC(C)(C)CC1)[C@H](CC(C)(C)C)CO2 [Compound 172]

pEC50 (Table 11): > 6.00
Emax [1]: > 60%
Structure (SMILES): Cc1cccc(C)c1-c1cc2nc(n1)NS(=O)(=O)c1cccc(c1)C(=O)N(Cc1cncc(N(C)C)n1)[C@H](CC(C)(C)C)CO2 [Compound 885]

pEC50 (Table 11): > 6.00
Emax [1]: > 60%
Structure (SMILES): Cc1cccc(C)c1-c1cc2nc(n1)NS(=O)(=O)c1cccc(c1)C(=O)N(Cc1nccc(C(C)C)n1)[C@H](CC(C)(C)C)CO2 [Compound 121, (11R)-6-(2,6-Dimethylphenyl)-11-(2,2-dimethylpropyl)-12-[(4-isopropylpyrimidin-2-yl)methyl]-2,2-dioxo-9-oxa-2λ^6-thia-3,5,12,19-tetrazatricyclo[12.3.1.14,8]nonadeca-1(18),4(19),5,7,14,16-hexaen-13-one]

activation at 10 µM [3]: > 60%
Structure (SMILES): COCCN(c1cccc(CN2C(=O)c3cccc(c3)S(=O)(=O)Nc3nc(cc(-c4c(C)cccc4C)n3)OC[C@H]2CC(C)(C)F)n1)C(C)C [Compound 1508]

Emax [4]: > 60%
Structure (SMILES): Cc1cccc(C)c1-c1cc2nc(n1)NS(=O)(=O)c1cccc(c1)C(=O)N(Cc1ccc(C(C)(C)C)nc1C)[C@H](CC(C)(C)C)CO2 [Compound 528]

pEC50 (Table 13): > 6.00
Emax [5]: > 60%
Structure (SMILES): Cc1cccc(C)c1-c1cc2nc(n1)NS(=O)(=O)c1cccc(n1)C(=O)N(Cc1cccc(NCC(C)(C)C)n1)[C@H](CC(C)(C)C)CO2 [Compound 1144]

pEC50 (Table 10): > 6.00
Emax [4]: > 60%
Structure (SMILES): Cc1cccc(C)c1-c1cc2nc(n1)NS(=O)(=O)c1cccc(c1)C(=O)N(Cc1ccc(Cc3nccs3)cc1)[C@H](CC(C)(C)C)CO2 [Compound 296]

pEC50 (Table 13): 5.52 to 6.00
Emax [5]: > 60%
Structure (SMILES): Cc1cccc(C)c1-c1cc2nc(n1)NS(=O)(=O)c1cccc(c1)C(=O)N(Cc1nccc(N(C)CC(C)(C)C)c1F)[C@H](CC(C)(C)C)CO2 [Compound 1155]

pEC50 (Table 10): > 6.00
Emax [4]: > 60%
Structure (SMILES): COc1cnc(CN2C(=O)c3cccc(c3)S(=O)(=O)Nc3nc(cc(-c4c(C)cccc4C)n3)OC[C@H]2CC(C)(C)C)nc1 [Compound 772]

activation at 10 µM [6]: < 300%
Structure (SMILES): Cc1cccc(C)c1-c1cc2nc(n1)NS(=O)(=O)c1cccc(c1)C(=O)N(CC1CCC(NCC(=O)O)CC1)[C@H](CC(C)(C)C)CO2 (stereo partly drawn) [Compound 912]

pEC50 (Table 11): > 6.00
Emax [1]: > 60%
Structure (SMILES): Cc1cccc(C)c1-c1cc2nc(n1)NS(=O)(=O)c1cccc(c1)C(=O)N(Cc1cnc(N3CCC(C)(C)CC3)cn1)[C@H](CC(C)(C)C)CO2 [Compound 608]

pEC50 (Table 10): 5.52 to 6.00
Emax [4]: > 60%
Structure (SMILES): Cc1cccc(C)c1-c1cc2nc(n1)NS(=O)(=O)c1cccc(c1)C(=O)N(Cc1ccc(C3CCCCC3)cc1)[C@H](CC(C)(C)C)CO2 [Compound 495]

pEC50 (Table 10): > 6.00
Emax [4]: > 60%
Structure (SMILES): Cc1cccc(C)c1-c1cc2nc(n1)NS(=O)(=O)c1cccc(c1)C(=O)N(Cc1cnc(N3CCOCC3)cn1)[C@H](CC(C)(C)C)CO2 [Compound 505]

activation at 10 µM (Table 12, at 10 μM, read-out: HBE Activity at 10 μM (%)): > 600%
Structure (SMILES): Cc1cccc(C)c1-c1cc(O)nc(NS(=O)(=O)c2cccc(C(=O)N(Cc3cccc(N4CCC[C@]4(C)C(=O)O)n3)[C@@H](C)CC(C)(C)C)c2)n1 [Compound 277]

activation at 10 µM [2]: > 600%
Structure (SMILES): Cc1cccc(C)c1-c1cc2nc(n1)NS(=O)(=O)c1cccc(c1)C(=O)N(CC(=O)N1C[C@H](C)CC1(C)C)[C@H](CC(C)(C)C)CO2 [Compound 204]

pEC50 (Table 13): > 6.00
Emax [5]: > 60%
Structure (SMILES): CCCCN(c1cccc(CN2C(=O)c3cccc(c3)S(=O)(=O)Nc3nc(cc(-c4c(C)cccc4C)n3)OC[C@H]2CC(C)(C)C)n1)C(C)C [Compound 1137]

activation at 10 µM [2]: > 600%
Structure (SMILES): COc1cc(Br)cnc1CN1C(=O)c2cccc(c2)S(=O)(=O)Nc2nc(cc(-c3c(C)cccc3C)n2)OC[C@H]1CC(C)(C)C [Compound 244]

pEC50 (Table 10): > 6.00
Emax [4]: > 60%
Structure (SMILES): Cc1cccc(C)c1-c1cc2nc(n1)NS(=O)(=O)c1cccc(c1)C(=O)N(CC1CCC(O)(C(F)(F)F)CC1)[C@H](CC(C)(C)C)CO2 (stereo partly drawn) [Compound 905]

pEC50 (Table 11): 5.52 to 6.00
Emax [1]: > 60%
Structure (SMILES): Cc1cccc(C)c1-c1cc2nc(n1)NS(=O)(=O)c1cccc(c1)C(=O)N(Cc1cnc(C3CCCCC3)cn1)[C@H](CC(C)(C)C)CO2 [Compound 891]

pEC50 (HBE assay): > 6.00
Emax [7]: > 60%
Structure (SMILES): Cc1cccc(C)c1-c1cc2nc(n1)NS(=O)(=O)c1cccc(c1)C(=O)N(Cc1cccc(NC3CCOC3)n1)[C@H](CC(C)(C)C)CO2 (stereo partly drawn) [Compound 1352]

activation at 10 µM [2]: > 600%
Structure (SMILES): Cc1cccc(C)c1-c1cc2nc(n1)NS(=O)(=O)c1cccc(c1)C(=O)N(CC(=O)N(C)CC1CCCOC1)[C@H](CC(C)(C)C)CO2 (stereo partly drawn) [Compound 193]

activation at 10 µM [3]: > 60%
Structure (SMILES): Cc1cccc(C)c1-c1cc2nc(n1)NS(=O)(=O)c1cccc(c1)C(=O)N(Cc1ncc(NC(=O)OC(C)C)cn1)[C@H](CC(C)(C)C)CO2 [Compound 1515]

pEC50 (Table 11): 4.52 to 5.52
Emax [1]: > 60%
Structure (SMILES): Cc1cccc(C)c1-c1cc2nc(n1)NS(=O)(=O)c1cccc(c1)C(=O)N(Cc1ncc(N3CCC(C)(C)CC3)cn1)[C@H](CC(C)C)CO2 [Compound 605]

pEC50 (Table 11): > 6.00
Structure (SMILES): Cc1cccc(C)c1-c1cc2nc(n1)NS(=O)(=O)c1cccc(c1)C(=O)N(CC1CCCN(CCC(C)(C)C)C1=O)[C@H](CC(C)(C)C)CO2 (stereo partly drawn) [Compound 655]

activation at 10 µM [6]: > 60%
Structure (SMILES): Cc1cccc(C)c1-c1cc2nc(n1)NS(=O)(=O)c1cccc(c1)C(=O)N(Cc1ccc(-c3cc[nH]n3)cc1)[C@H](CC(C)(C)C)CO2 [Compound 290]

pEC50 (Table 11): > 6.00
Emax [1]: > 60%
Structure (SMILES): Cc1ccnc(CN2C(=O)c3cccc(c3)S(=O)(=O)Nc3nc(cc(-c4c(C)cccc4C)n3)OC[C@H]2CC(C)(C)C)c1 [Compound 1070]

Structure (SMILES): Cc1cccc(C)c1-c1cc2nc(n1)NS(=O)(=O)c1cccc(c1)C(=O)N(Cc1ncc(N3CC4CC(C4)C3)cn1)[C@H](CC(C)(C)C)CO2 [Compound 613]
EC50 (HBE EC50 (μM), Table 11): < 1 µM
Emax [1]: > 60%

Emax [4]: > 60%
Structure (SMILES): Cc1cccc(C)c1-c1cc2nc(n1)NS(=O)(=O)c1cccc(c1)C(=O)N(Cc1ccc(NCC(C)(C)C)cn1)[C@H](CC(C)(C)C)CO2 [Compound 477]

pEC50 (Table 11): > 6.00
Emax [1]: > 60%
Structure (SMILES): Cc1cccc(C)c1-c1cc2nc(n1)NS(=O)(=O)c1cccc(c1)C(=O)N(Cc1cccc(C3CCOCC3)n1)[C@H](CC(C)(C)C)CO2 [Compound 728]

pEC50 (Table 11): > 6.00
Emax [1]: > 60%
Structure (SMILES): Cc1cccc(C)c1-c1cc2nc(n1)NS(=O)(=O)c1cccc(c1)C(=O)N(Cc1cnc(N3CCC(C)(C)C3)cn1)[C@H](CC(C)(C)C)CO2 [Compound 607]

pEC50 (HBE assay): > 6.00
Emax [7]: > 60%
Structure (SMILES): Cc1cccc(C)c1-c1cc2nc(n1)NS(=O)(=O)c1cccc(c1)C(=O)N(Cc1ncc(N3CCC(F)(F)C3)cn1)[C@H](CC1CCC1)CO2 [Compound 1479]

pEC50 (Table 13): > 6.00
Emax [5]: > 60%
Structure (SMILES): COc1cnc(CN2C(=O)c3cccc(c3)S(=O)(=O)Nc3nc(cc(-c4c(C)cccc4C)n3)OC[C@H]2CC(C)(C)C)c(Cl)c1 [Compound 1067]

pEC50 (Table 13): > 6.00
Emax [5]: > 60%
Structure (SMILES): Cc1cccc(C)c1-c1cc2nc(n1)NS(=O)(=O)c1cccc(c1)C(=O)N(Cc1ncc(Cl)cc1F)[C@H](CC(C)(C)C)CO2 [Compound 1111]

pEC50 (HBE assay): > 6.00
Emax [7]: > 60%
Structure (SMILES): Cc1cccc(C)c1-c1cc2nc(n1)NS(=O)(=O)c1cccc(c1)C(=O)N(Cc1ncc(N3CC[C@H]3C)cn1)[C@H](CC(C)(C)C)CO2 [Compound 1405]

pEC50 (HBE assay): > 6.00
Emax [7]: > 60%
Structure (SMILES): CO[C@H]1C[C@@H](Oc2cnc(CN3C(=O)c4cccc(c4)S(=O)(=O)Nc4nc(cc(-c5c(C)cccc5C)n4)OC[C@H]3CC(C)(C)C)nc2)C1 [Compound 1369]

pEC50 (Table 12): > 6.00
Emax [8]: > 60%
Structure (SMILES): Cc1cccc(C)c1-c1cc2nc(n1)NS(=O)(=O)c1cccc(c1)C(=O)N(Cc1cn3ccccc3n1)[C@H](CC(C)(C)C)CO2 [Compound 699]

activation at 10 µM [2]: 30 to 60%
Structure (SMILES): Cc1cccc(C)c1-c1cc2nc(n1)NS(=O)(=O)c1cccc(c1)C(=O)N(CC(=O)N1CCc3c(Cl)nc(C(F)(F)F)nc3C1)[C@H](CC(C)(C)C)CO2 [Compound 206]

activation at 10 µM [6]: > 60%
Structure (SMILES): Cc1cccc(C)c1-c1cc2nc(n1)NS(=O)(=O)c1cccc(c1)C(=O)N(Cc1ccnn1C)[C@H](CC(C)(C)C)CO2 [Compound 827]

pEC50 (HBE assay): > 6.00
Emax [7]: > 60%
Structure (SMILES): Cc1cccc(C)c1-c1cc2nc(n1)NS(=O)(=O)c1cccc(c1)C(=O)N(Cc1ncc(OC3CCC3)cc1F)[C@H](CC(C)C)CO2 [Compound 1370]

activation at 10 µM [2]: > 600%
Structure (SMILES): Cc1cccc(C)c1-c1cc2nc(n1)NS(=O)(=O)c1cccc(c1)C(=O)N(CC(=O)NCc1ccccc1)[C@H](CC(C)(C)C)CO2 [Compound 219]

pEC50 (Table 12): > 6.00
Structure (SMILES): Cc1cccc(C)c1-c1cc2nc(n1)NS(=O)(=O)c1cccc(c1)C(=O)N(Cc1cncc(N(C)C3CCC34CCC4)n1)[C@H](CC(C)(C)C)CO2 (stereo partly drawn) [Compound 438]

pEC50 (Table 12): > 6.00
Emax [8]: > 60%
Structure (SMILES): Cc1cccc(C)c1-c1cc2nc(n1)NS(=O)(=O)c1cccc(c1)C(=O)N(Cc1nc(C(C)C)cn1C)[C@H](CC(C)(C)C)CO2 [Compound 267]
